Assay results: ChEMBL document CHEMBL3526019, “Novel cytochrome P450-mediated ring opening of the 1,3,4-oxadiazole in setileuton, a 5-lipoxygenase inhibitor” (Drug Metab Dispos, 2011)
Values belong to the compound of their own block, whether it stands above or below them.

Columns and labels:
[1] = molecular target: T1, Cytochrome P450 1A2 (Rattus norvegicus, UniProt P04799); experiment: Activity of CYP1A2 in rat liver microsomes assessed as enzyme mediated compound formation treated with 10 uM setileuton after 5 mins in presence of NADPH (reference value: 8.10 +/- 2.26 nM); type: ADME
T1 sequence (P04799 whole entry): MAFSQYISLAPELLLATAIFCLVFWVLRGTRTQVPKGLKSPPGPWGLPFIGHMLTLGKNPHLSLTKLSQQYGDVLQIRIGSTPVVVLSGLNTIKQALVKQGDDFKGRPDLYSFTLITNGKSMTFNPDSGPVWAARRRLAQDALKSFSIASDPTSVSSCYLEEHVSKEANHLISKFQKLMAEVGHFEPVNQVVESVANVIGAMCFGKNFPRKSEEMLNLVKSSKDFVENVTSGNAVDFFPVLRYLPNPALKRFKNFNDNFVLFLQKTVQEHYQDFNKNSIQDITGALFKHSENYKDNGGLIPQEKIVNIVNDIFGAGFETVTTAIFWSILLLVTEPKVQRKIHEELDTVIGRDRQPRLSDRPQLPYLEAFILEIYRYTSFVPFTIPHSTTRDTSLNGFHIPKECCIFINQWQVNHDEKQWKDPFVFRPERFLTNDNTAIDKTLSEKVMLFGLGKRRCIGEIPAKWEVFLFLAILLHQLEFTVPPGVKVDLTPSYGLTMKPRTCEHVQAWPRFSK

[2] = molecular target: T1, Cytochrome P450 1A2; experiment: Activity of CYP1A2 in rat liver microsomes assessed as enzyme mediated compound formation treated with 10 uM setileuton after 10 mins in presence of NADPH (reference value: 8.10 +/- 2.26 nM); type: ADME
[3] = Drug level in rat urine treated with setileuton; type: ADME, tissue-based; settings: in vivo
[4] = molecular target: T1, Cytochrome P450 1A2; experiment: Activity of CYP1A2 in rat liver microsomes assessed as enzyme mediated compound formation treated with 10 uM setileuton after 8 mins in presence of NADPH (reference value: 8.10 +/- 2.26 nM); type: ADME
[5] = tested on: Liver microsome; experiment: Drug level in NADPH fortified rat liver microsomes treated with setileuton; type: ADME
[6] = molecular target: T1, Cytochrome P450 1A2; experiment: Activity of rat recombinant CYP1A2 expressed in baculovirus-infected insect cells assessed as enzyme-mediated compound formation treated with setileuton at 10 uM preincubated for 3 mins measured after 30 mins in presence of 1 mM NADPH; type: ADME; settings: 0.5 h
[7] = molecular target: T2, Cytochrome P450 3A2 (Rattus norvegicus, UniProt P05183); experiment: Activity of rat recombinant CYP3A2 expressed in baculovirus-infected insect cells assessed as enzyme-mediated compound formation treated with setileuton at 10 uM preincubated for 3 mins measured after 30 mins in presence of 1 mM NADPH; type: ADME; settings: 0.5 h
T2 sequence (P05183 whole entry): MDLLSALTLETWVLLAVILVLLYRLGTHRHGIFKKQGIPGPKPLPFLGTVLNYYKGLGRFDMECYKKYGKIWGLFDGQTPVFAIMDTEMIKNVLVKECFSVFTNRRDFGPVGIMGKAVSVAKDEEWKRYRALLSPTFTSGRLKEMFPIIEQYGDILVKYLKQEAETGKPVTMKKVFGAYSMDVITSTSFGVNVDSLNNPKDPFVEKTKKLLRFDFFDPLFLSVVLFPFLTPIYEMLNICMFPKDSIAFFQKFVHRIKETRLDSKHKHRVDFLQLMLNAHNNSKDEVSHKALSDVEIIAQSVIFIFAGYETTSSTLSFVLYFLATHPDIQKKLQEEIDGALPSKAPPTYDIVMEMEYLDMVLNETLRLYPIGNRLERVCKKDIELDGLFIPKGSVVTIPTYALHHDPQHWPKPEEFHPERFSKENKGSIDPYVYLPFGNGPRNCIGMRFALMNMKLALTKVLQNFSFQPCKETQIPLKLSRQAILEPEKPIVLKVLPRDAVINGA

[8] = molecular target: T1, Cytochrome P450 1A2; experiment: Activity of CYP1A2 in rat liver microsomes assessed as enzyme mediated compound formation treated with 10 uM setileuton after 8 mins in absence of NADPH (reference value: 1.93 +/- 0.40 nM); type: ADME
[9] = molecular target: T1, Cytochrome P450 1A2; experiment: Activity of CYP1A2 in rat liver microsomes assessed as enzyme mediated compound formation treated with 10 uM setileuton after 2 mins in absence of NADPH (reference value: 1.93 +/- 0.40 nM); type: ADME
[10] = molecular target: T1, Cytochrome P450 1A2; experiment: Activity of CYP1A2 in rat liver microsomes assessed as enzyme mediated compound formation treated with 10 uM setileuton after 10 mins in absence of NADPH (reference value: 1.93 +/- 0.40 nM); type: ADME
[11] = molecular target: T1, Cytochrome P450 1A2; experiment: Activity of CYP1A2 in rat liver microsomes assessed as enzyme mediated compound formation treated with 10 uM setileuton after 2 mins in presence of NADPH (reference value: 8.10 +/- 2.26 nM); type: ADME
[12] = molecular target: T3, Cytochrome P450 3A1 (Rattus norvegicus, UniProt P04800); experiment: Activity of rat recombinant CYP3A1 expressed in baculovirus-infected insect cells assessed as enzyme-mediated compound formation treated with setileuton at 10 uM preincubated for 3 mins measured after 30 mins in presence of 1 mM NADPH; type: ADME; settings: 0.5 h
T3 sequence (P04800 whole entry): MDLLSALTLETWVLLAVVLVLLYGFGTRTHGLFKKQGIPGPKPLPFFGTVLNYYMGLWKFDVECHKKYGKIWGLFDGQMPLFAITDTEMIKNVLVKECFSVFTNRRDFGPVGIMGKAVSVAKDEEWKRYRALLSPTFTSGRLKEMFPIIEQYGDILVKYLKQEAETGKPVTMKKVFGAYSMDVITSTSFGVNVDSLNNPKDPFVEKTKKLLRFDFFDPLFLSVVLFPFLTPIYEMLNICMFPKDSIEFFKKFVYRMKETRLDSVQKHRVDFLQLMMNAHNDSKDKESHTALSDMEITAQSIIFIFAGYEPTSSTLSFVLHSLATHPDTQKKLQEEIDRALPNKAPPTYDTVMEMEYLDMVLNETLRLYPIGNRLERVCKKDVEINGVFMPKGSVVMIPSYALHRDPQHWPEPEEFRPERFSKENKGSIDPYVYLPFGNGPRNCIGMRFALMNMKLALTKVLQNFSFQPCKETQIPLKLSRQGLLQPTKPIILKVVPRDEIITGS

[13] = molecular target: T4, Cytochrome P450 1A1 (Rattus norvegicus, UniProt P00185); experiment: Activity of rat recombinant CYP1A1 expressed in baculovirus-infected insect cells assessed as enzyme-mediated compound formation treated with setileuton at 10 uM preincubated for 3 mins measured after 30 mins in presence of 1 mM NADPH; type: ADME; settings: 0.5 h
T4 sequence (P00185 whole entry): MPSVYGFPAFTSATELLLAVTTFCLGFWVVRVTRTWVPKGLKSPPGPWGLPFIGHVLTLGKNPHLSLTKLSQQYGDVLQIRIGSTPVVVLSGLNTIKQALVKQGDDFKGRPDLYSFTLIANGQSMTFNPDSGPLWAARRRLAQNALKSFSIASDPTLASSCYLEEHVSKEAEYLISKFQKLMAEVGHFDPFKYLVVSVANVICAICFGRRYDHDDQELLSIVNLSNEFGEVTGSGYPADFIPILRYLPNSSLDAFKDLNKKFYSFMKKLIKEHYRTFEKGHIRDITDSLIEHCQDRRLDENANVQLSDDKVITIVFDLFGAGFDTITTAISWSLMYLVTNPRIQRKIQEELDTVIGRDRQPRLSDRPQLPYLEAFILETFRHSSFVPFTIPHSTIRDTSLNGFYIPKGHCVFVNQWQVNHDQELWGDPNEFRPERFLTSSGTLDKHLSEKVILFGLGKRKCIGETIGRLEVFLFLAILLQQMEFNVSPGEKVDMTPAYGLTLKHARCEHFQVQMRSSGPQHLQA

[14] = molecular target: T1, Cytochrome P450 1A2; experiment: Activity of CYP1A2 in rat liver microsomes assessed as enzyme mediated compound formation treated with 10 uM setileuton after 5 mins in absence of NADPH (reference value: 1.93 +/- 0.40 nM); type: ADME
[15] = Drug metabolism in rat urine assessed as N-((4-(4-fluorophenyl)-2-oxochroman-7-yl)methyl)-2-((S)-2-hydroxy-2-(trifluoromethyl)butanoyl)hydrazinecarboxamide level; type: ADME, tissue-based
[16] = molecular target: T3, Cytochrome P450 3A1; experiment: (§1) Activity of rat recombinant CYP3A1 expressed in baculovirus-infected insect cells assessed as enzyme-mediated N-((4-(4-fluorophenyl)-2-oxochroman-7-yl)methyl)-2-((S)-2-hydroxy-2-(trifluoromethyl)butanoyl)hydrazinecarboxamide formation at 10 uM preincubated for 3 mins measured after 30 mins in presence of 1 mM NADPH; type: ADME; settings: 0.5 h
[17] = tested on: Liver microsome; experiment: Drug metabolism in NADPH fortified rat liver microsomes assessed as N-((4-(4-fluorophenyl)-2-oxochroman-7-yl)methyl)-2-((S)-2-hydroxy-2-(trifluoromethyl)butanoyl)hydrazinecarboxamide level; type: ADME
[18] = molecular target: T3, Cytochrome P450 3A1; experiment: as §1, with “formation” for “formation at 10 uM”, “by Michaelis-Menten equation” for “measured after 30 mins”, “of” for “of 1 mM”, “NADPH for 10 mins” for “NADPH”; type: ADME
[19] = tested on: Liver microsome; experiment: Drug metabolism in rat liver microsomes assessed as N-((4-(4-fluorophenyl)-2-oxochroman-7-yl)methyl)-2-((S)-2-hydroxy-2-(trifluoromethyl)butanoyl)hydrazinecarboxamide formation by Michaelis-Menten equation in presence of 1 mM NADPH for 10 mins; type: ADME
[20] = molecular target: T2, Cytochrome P450 3A2; experiment: as §1, with “CYP3A2” for “CYP3A1”; type: ADME; settings: 0.5 h
[21] = molecular target: T4, Cytochrome P450 1A1; experiment: as §1, with “CYP1A1” for “CYP3A1”; type: ADME; settings: 0.5 h
[22] = molecular target: T1, Cytochrome P450 1A2; experiment: Activity of rat recombinant CYP1A2 expressed in baculovirus-infected insect cells assessed as enzyme-mediated N-((4-(4-fluorophenyl)-2-oxochroman-7-yl)methyl)-2-((S)-2-hydroxy-2-(trifluoromethyl)butanoyl)hydrazinecarboxamide formation preincubated for 3 mins by Michaelis-Menten equation in presence of NADPH for 10 mins; type: ADME
[23] = molecular target: T1, Cytochrome P450 1A2; experiment: as §1, with “CYP1A2” for “CYP3A1”; type: ADME; settings: 0.5 h

Drug metabolism [1]: 57.93 nM
Drug metabolism [2]: 100.4 nM
Drug metabolism [3]: metabolite_detected
Drug metabolism [4]: 74.89 nM
Drug metabolism [5]: metabolite_detected
Drug metabolism [6]: metabolite_detected
Drug metabolism [7]: metabolite_detected
Drug metabolism [8]: 1.43 nM
Drug metabolism [9]: 1.81 nM
Drug metabolism [10]: 1.56 nM
Drug metabolism [11]: 29.74 nM
Drug metabolism [12]: metabolite_detected
Drug metabolism [13]: metabolite_detected
Drug metabolism [14]: 1.66 nM
Structure (SMILES): CC[C@](O)(C(=O)NNC(=O)NCc1ccc2c(-c3ccc(F)cc3)cc(=O)oc2c1)C(F)(F)F

Drug metabolism [15]: metabolite_detected
Drug metabolism [16]: metabolite_detected
Drug metabolism [17]: metabolite_detected
S50 [18]: 8.2 µM
S50 [19]: 10.6 µM
Drug metabolism [20]: metabolite_detected
Drug metabolism [21]: metabolite_detected
S50 [22]: 8.2 µM
Drug metabolism [23]: metabolite_detected
Structure (SMILES): CC[C@](O)(c1nnc(NCc2ccc3c(-c4ccc(F)cc4)cc(=O)oc3c2)o1)C(F)(F)F [SETILEUTON]
